# Target: 2-acylglycerol O-acyltransferase 2 (Homo sapiens, UniProt Q3SYC2)
# Assay: LCMS Assay
# Conditions: pH 7.4; 65 °C
# Experimental: The MGAT enzyme reactions were performed in Corning FALCON® 96-well Polypropylene plates, in a total volume of 60 μL of 50 mM Potassium Phosphate buffer pH 7.4, containing a final concentration of 100 μM 2-oleoylglycerol, 15 μM oleoyl-Coenzyme A and 0.0013 μg/μL Human or Mouse MGAT-2 or 0.0026 μg/μL Rat recombinant MGAT-2 membranes expressed in Sf9 cells. Assay plates were run through a fully automated robotics system and shaken for 5 seconds every minute for a total 10 minutes. The reactions were then quenched with 120 μL of ice cold methanol containing 1 μg/mL 1,2-distearoyl-rac-glycerol as the internal standard. Plates were shaken for 2 minutes and spun down to remove protein precipitation. After the spin, samples were transferred to LC/MS compatible PCR plates. For LC/MS analysis, a ThermoFisher Surveyor pump, utilizing a Waters Symmetry C8, 50×2.1 mm column, was used for the chromatography of enzyme products. The buffer system consists of 0.1% formic acid in water with a mobile phase consisting 0.1% formic acid in methanol. The shallow gradient is 90-100% mobile phase in 0.2 min with a total run time of 2.3 min. The first 0.5 minutes of each injection was diverted to waste to eliminate the presence of Phosphate buffer in the enzymatic reaction. The column was run at 0.6 mL/min and a temperature of 65° C.
# Chain of 2-acylglycerol O-acyltransferase 2 (Q3SYC2 whole entry): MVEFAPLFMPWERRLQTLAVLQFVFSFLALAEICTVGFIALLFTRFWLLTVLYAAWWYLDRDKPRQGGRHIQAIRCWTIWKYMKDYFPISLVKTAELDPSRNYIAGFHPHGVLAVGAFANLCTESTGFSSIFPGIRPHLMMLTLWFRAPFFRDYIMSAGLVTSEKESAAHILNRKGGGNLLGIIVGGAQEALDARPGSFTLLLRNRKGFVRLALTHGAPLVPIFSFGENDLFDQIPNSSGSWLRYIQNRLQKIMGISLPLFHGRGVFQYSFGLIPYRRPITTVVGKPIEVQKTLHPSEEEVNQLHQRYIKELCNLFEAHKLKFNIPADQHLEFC
row,IC50 [nM],Compound
1,38,"Cc1ccc(C2=C(C(=O)NS(=O)(=O)N(C)C)C(=O)N[C@@](c3ccc(OCCCC(F)(F)F)cc3)(C(F)(F)F)C2)cc1 [US9365558, 31]"
2,40,"CC(C)(C)n1ccc(C2=C(C(=O)NS(=O)(=O)C3CC3)C(=O)N[C@@](c3ccc(OCCCCCC(F)(F)F)cc3)(C(F)(F)F)C2)n1 [US9365558, 80]"

# Reference: BindingDB's records for patent US9365558 (Bristol Myers Squibb, 2016)
